What was measured:
Type in all cases: physicochemical
[1] = Drying behaviour of crystallisates in dependence on residual moisture and product purity (tempering in sealed vials, visual points classification); parameters: key: 5 points=sample unchanged; 4 points=sample compacted/started to dissolve; 3 points=sample visibly started to dissolve; 2 points=sample cloudy highly viscous solution; 1 point=sample dissolved to clear solution; settings: sealed vial, shaken
Protocol: This dependency is shown by the following example for determining the drying behaviour of crystallisates in dependence on residual moisture and product purity.
A DTPMP solid isolated by recrystallisation is characterised by residues of adhering mother liquor via the quality parameters listed in the following table. Determination of the residual moisture content by means of a halogen dryer HB 43 S/Mettler Toledo is carried out isothermally at the indicated temperature using the shutoff criterion 4 (AK4=mean weight loss is <1 mg per 90 seconds):
After a purification step, which consists in suspending the solid in water and then separating it off by means of a filtering centrifuge, the following quality criteria are obtained:
The adhering residual moisture is removed stepwise from these solid samples in a rotary evaporator at 40° C. and 5 mbar vacuum, so that a series of samples with decreasing residual moisture content is prepared from each of the two purity grades (unwashed and washed).
4 ml borosilicate vials are filled with this sample material and the filling level is adjusted to ⅔ of the height of the glass by gentle tapping. In order to minimise evaporative losses, the screw cap of each vial is additionally sealed with a polyethylene film. All the samples are shaken in parallel in a tempering block on a heating and cooling shaker ThermoTwister comfort/Quantifoil Instruments GmbH for a defined period at a defined temperature and then assessed visually. Classification is made according to the following points system: […]

[2] = Determination of the hygroscopicity (gravimetric water absorption in desiccator at constant humidity); settings: 22±2° C., relative humidity of 55%; for Relative water absorption: determined daily over 12 days
Protocol: In order to determine the hygroscopicity, solid samples were stored in 25 ml glass beakers in a desiccator under constant humidity. […] The water absorption of the samples was determined gravimetrically once daily over a period of 12 days as the difference in mass (see FIG. 14).
Two spray-dried powders were tested as comparison with crystallisate samples of the crystallisates of the α, β and γ crystal modification.
A DTPMP synthesis product having the quality parameters from Table 4 used as the starting slurry for the crystallisation was spray dried with a Büchi-Mini Spray Dryer B-290.

[3] = Bulk density of the samples used for the hygroscopicity test
[4] = Temperature 35 °C, test duration 24 h
[5] = Temperature 40 °C, test duration 24 h
[6] = Temperature 45 °C, test duration 24 h
[7] = Temperature 50 °C, test duration 24 h
[8] = Temperature 55 °C, test duration 24 h
[9] = Temperature 60 °C, test duration 24 h
[10] = Temperature 65 °C, test duration 5 h
[11] = Temperature 70 °C, test duration 5 h
[12] = Temperature 75 °C, test duration 5 h
[13] = Temperature 80 °C, test duration 5 h
[14] = Temperature 85 °C, test duration 5 h
[15] = Temperature 90 °C, test duration 5 h

| Visual classification at the end of the tempering step (points system) [1, 4] | Visual classification at the end of the tempering step (points system) [1, 5] | Visual classification at the end of the tempering step (points system) [1, 6] | Visual classification at the end of the tempering step (points system) [1, 7] | Visual classification at the end of the tempering step (points system) [1, 8] | Visual classification at the end of the tempering step (points system) [1, 9] | Visual classification at the end of the tempering step (points system) [1, 10] | Visual classification at the end of the tempering step (points system) [1, 11] | Visual classification at the end of the tempering step (points system) [1, 12] | Visual classification at the end of the tempering step (points system) [1, 13] | Visual classification at the end of the tempering step (points system) [1, 14] | Visual classification at the end of the tempering step (points system) [1, 15] | Relative water absorption [2] [% by mass/day] | Hygroscopicity / water absorption capacity (in words) ([2]; listed as crystal modification β) | Bulk density [3] [g/mL] | Hygroscopicity / water absorption capacity (in words) [2] | Hygroscopicity / water absorption capacity (in words) ([2]; listed as crystal modification γ) | Hygroscopicity / water absorption capacity (in words) ([2]; listed as Spray-dried powders of the unpurified DTPMP synthesis product) | Compound |
| --- | --- | --- | --- | --- | --- | --- | --- | --- | --- | --- | --- | --- | --- | --- | --- | --- | --- | --- |
| 5 | 5 | 5 | 5 | 5 | 3 | 1 | 1 | 1 | 1 | 1 | 1 |  |  |  |  |  |  | O=P(O)(O)CN(CCN(CP(=O)(O)O)CP(=O)(O)O)CCN(CP(=O)(O)O)CP(=O)(O)O [unwashed quality 36 [% by mass] residual moisture] |
| 5 | 5 | 5 | 5 | 4 | 3 | 1 | 1 | 1 | 1 | 1 | 1 |  |  |  |  |  |  | O=P(O)(O)CN(CCN(CP(=O)(O)O)CP(=O)(O)O)CCN(CP(=O)(O)O)CP(=O)(O)O [unwashed quality 31 [% by mass] residual moisture] |
| 5 |  |  |  |  |  |  |  |  | 1 | 1 | 1 |  |  |  |  |  |  | O=P(O)(O)CN(CCN(CP(=O)(O)O)CP(=O)(O)O)CCN(CP(=O)(O)O)CP(=O)(O)O [washed quality 53 [% by mass] residual moisture] |
|  |  |  |  |  |  |  |  |  |  |  |  | 0.04 | consistently low water absorption | 0.49 |  |  |  | O=P(O)(O)CN(CCN(CP(=O)(O)O)CP(=O)(O)O)CCN(CP(=O)(O)O)CP(=O)(O)O [Crystal form β, purified quality, diethylenetriamine penta(methylenephosphonic acid)] |
|  |  |  |  |  |  |  |  |  |  |  |  | 0.003 |  | 0.59 | by far the lowest hygroscopicity | consistently low water absorption |  | O=P(O)(O)CN(CCN(CP(=O)(O)O)CP(=O)(O)O)CCN(CP(=O)(O)O)CP(=O)(O)O [Crystal form γ, purified quality, diethylenetriamine penta(methylenephosphonic acid)] |
|  |  |  |  |  |  |  |  |  |  |  |  | 0.40 |  | 0.27 |  |  | greatest hygroscopicity | O=P(O)(O)CN(CCN(CP(=O)(O)O)CP(=O)(O)O)CCN(CP(=O)(O)O)CP(=O)(O)O [amorphous powder from spray drying of an unpurified DTPMP sy] [reference compound] |
| 5 | 5 | 5 | 4 | 4 | 3 | 2 | 1 | 1 | 1 | 1 | 1 |  |  |  |  |  |  | O=P(O)(O)CN(CCN(CP(=O)(O)O)CP(=O)(O)O)CCN(CP(=O)(O)O)CP(=O)(O)O [unwashed quality 24 [% by mass] residual moisture] |
| 5 | 5 | 5 | 5 | 5 | 3 | 1 | 1 | 1 | 1 | 1 | 1 |  |  |  |  |  |  | O=P(O)(O)CN(CCN(CP(=O)(O)O)CP(=O)(O)O)CCN(CP(=O)(O)O)CP(=O)(O)O [unwashed quality 40 [% by mass] residual moisture] |
| 5 | 5 | 5 | 5 | 5 | 3 | 1 | 1 | 1 | 1 | 1 | 1 |  |  |  |  |  |  | O=P(O)(O)CN(CCN(CP(=O)(O)O)CP(=O)(O)O)CCN(CP(=O)(O)O)CP(=O)(O)O [unwashed quality 47 [% by mass] residual moisture] |
| 5 | 5 | 5 | 5 | 5 | 5 | 5 | 5 | 5 | 5 | 5 | 5 |  |  |  |  |  |  | O=P(O)(O)CN(CCN(CP(=O)(O)O)CP(=O)(O)O)CCN(CP(=O)(O)O)CP(=O)(O)O [washed quality 11 [% by mass] residual moisture] |
| 5 | 5 | 5 | 5 | 5 | 4 | 2 | 2 | 2 | 2 | 2 | 2 |  |  |  |  |  |  | O=P(O)(O)CN(CCN(CP(=O)(O)O)CP(=O)(O)O)CCN(CP(=O)(O)O)CP(=O)(O)O [unwashed quality 19 [% by mass] residual moisture] |
| 5 | 5 | 5 | 5 | 5 | 2 | 1 | 1 | 1 | 1 | 1 | 1 |  |  |  |  |  |  | O=P(O)(O)CN(CCN(CP(=O)(O)O)CP(=O)(O)O)CCN(CP(=O)(O)O)CP(=O)(O)O [unwashed quality 51 [% by mass] residual moisture] |

From US10590153B2, “Process for producing crystalline DTPMP” (Zschimmer & Schwarz Mohsdorf GmbH & Co. KG, priority 2014, dated 2020)
